Experimental data as given in US20140079632A1, “ACTIVITY-BASED PROBES FOR THE UROKINASE P[…]” (UNIVERSITEIT ANTWERPEN, priority 2011, published 2014).

Key:
Type in all cases: biochemical
[1] = target: T1, uPA (Homo sapiens, UniProt P00749); test: uPA inhibition: in vitro evaluation, IC50 with chromogenic substrate Biophen CS-61(44); conditions: 15 min preincubation at 37° C.; Tris buffer pH 8.8; 250 μM substrate
T1 construct: purchased Nodia
Procedure: Enzymatic activity was measured at 37° C. in a Spectramax 340 (Molecular Devices) microtiter plate reader using the chromogenic substrate Biophen CS-61(44) (LpyroGlu-Gly L-Arg-p-NA.HCl), with a Km of 80 μM.
(§1) The substrate and human enzyme were obtained from Nodia. The reaction was monitored at 405 nm, and the initial rate was determined between 0 and 0.25 absorbance units in 20 min. The reaction mixture contained 250 μM substrate and approximately 1 mU of enzyme in 145 μL of buffer in a final volume of 200 μL. A 50 mM Tris buffer, pH 8.8, was used. From each inhibitor concentration, 5 μL was added, obtaining a final concentration from 0 to 250 μM in a total volume of 0.2 mL. Activity measurements were routinely performed in duplicate. […] IC50 values were obtained by fitting the data with the four-parameter logistics equation using Grafit 5.
where s=slope factor, v=rate, I0=inhibitor concentration, and range=the fitted uninhibited value minus the background. The equation assumes the y falls with increasing x.
(§2) Inhibitor stock solutions were prepared in DMSO and stored at −20° C. Because the compounds described in this paper completely inactivate uPA following pseudofirst-order kinetics, the IC50 value is inversely correlated with the second-order rate constant of inactivation. For a simple pseudofirst-order inactivation process, the activity after incubation with inhibitor (vi) varies with the inhibitor concentration (i), as described in the following equation: […]

[2] = target: T1, uPA; test: uPA inactivation kinetics from progress curves (kobs versus inhibitor concentration, kapp); conditions: 250 μM substrate, 37° C.
Procedure: as §2
where vo is the activity in absence of inhibitor, k is the second-order rate constant of inactivation, and t is the time. The inactivation rate constant was determined from the time course of inhibition.
The inhibitor was mixed with the substrate (250 μM final concentration), and the buffer solution with the enzyme was added at the time zero. The inhibitor concentrations were chosen to obtain total inhibition of the enzyme within 20 min. The progress curves show the absorbance of p-nitroanilide produced as a function of time. Initially, no inhibitor is bound to the enzyme, and the tangent to the progress curve (dA/dt) is proportional to the concentration of the free enzyme. The concentration of free enzyme decreases over time due to the kinetics of inhibitor binding, as described above. Progress curves were recorded in pseudofirst-order conditions ([I]0>>[E]0) and with less than 10% conversion of the substrate during the entire time course. In these conditions, dA/dt decreases exponentially with time. The progress curves were fitted with the integrated rate equation to yield a value for kobs, a pseudofirst-order rate constant
At=v0[1−e^−k^obs^t]/kobs+A0
where At=absorbance at time t, A0=absorbance at time zero, and v0=uninhibited initial rate.
The apparent second-order rate constant (kapp) was calculated from the slope of the linear part of the plot of kobs versus the inhibitor concentration ([I]0). In case of competition between the inhibitor and the substrate, kapp is smaller than the “real” second order rate constant k discussed above because a certain fraction of the enzyme is present as an enzyme-substrate complex. kapp depends on the substrate concentration used in the experiment, as described by Lambeir et al.^40 For most final compounds, the kobs versus [I]0 plot was not linear, but could be fitted with a hyperbolic function: kobs=k2[I]0/(K1+[I]0) (two step mechanism). Where K1 is the dissociation constant of the reversible enzyme-inhibitor complex and k2 is the first-order rate constant associated with irreversible modification of the enzyme. A kapp could be calculated as k2/K1.

[3] = target: T2, tPA (recombinant) (Homo sapiens, UniProt P00750); test: Selectivity: tPA inhibition, substrate Biophen CS-05(88); conditions: 15 min preincubation; Tris buffer pH 8.3; 1.25 mM substrate
T2 construct: purchased Nodia
T2 sequence (P00750 36-562, species assumed): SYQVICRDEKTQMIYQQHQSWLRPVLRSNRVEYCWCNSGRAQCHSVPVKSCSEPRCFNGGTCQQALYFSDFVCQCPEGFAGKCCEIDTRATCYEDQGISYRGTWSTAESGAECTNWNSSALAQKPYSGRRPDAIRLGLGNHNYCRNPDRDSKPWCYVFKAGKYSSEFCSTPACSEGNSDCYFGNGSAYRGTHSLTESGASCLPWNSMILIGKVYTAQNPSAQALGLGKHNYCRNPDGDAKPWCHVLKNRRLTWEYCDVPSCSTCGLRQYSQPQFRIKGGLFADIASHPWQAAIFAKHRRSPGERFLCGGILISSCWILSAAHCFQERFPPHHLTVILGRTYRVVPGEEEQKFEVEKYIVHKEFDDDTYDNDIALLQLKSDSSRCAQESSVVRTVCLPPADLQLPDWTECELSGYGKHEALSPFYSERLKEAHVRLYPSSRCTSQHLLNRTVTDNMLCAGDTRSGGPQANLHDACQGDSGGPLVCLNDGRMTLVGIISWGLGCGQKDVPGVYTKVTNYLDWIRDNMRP
Procedure: as §1, with “The reaction mixture contained 250 μM substrate and approximately 1 mU of enzyme in 145 μL of buffer in a final volume of 200 μL.” left out
(§3) The IC50 values for plasmin (from human plasma, Sigma), tPA (recombinant, Nodia), thrombin (from human plasma, Sigma), and FXa were determined in the same way as for uPA.
(§4) For tPA and thrombin, Tris buffer, pH 8.3, was used, for FXa, Tris buffer, pH 8.3, for plasmin, Tris buffer, pH 7.4, was used.

[4] = target: T3, thrombin (from human plasma) (Homo sapiens, UniProt P00734); test: Selectivity: thrombin inhibition, substrate Biophen CS-21(66); conditions: 15 min preincubation; Tris buffer pH 8.3; 580 μM substrate
T3 construct: thrombin (from human plasma, Sigma); purchased Sigma; host or cells: human plasma
Procedure: as §1, with “The reaction mixture contained 250 μM substrate and approximately 1 mU of enzyme in 145 μL of buffer in a final volume of 200 μL.” left out
as §3, §4

[5] = target: T4, plasmin (from human plasma) (Homo sapiens, UniProt P00747); test: Selectivity: plasmin inhibition, substrate Biophen CS-21(66); conditions: 15 min preincubation; Tris buffer pH 7.4; 580 μM substrate
T4 construct: purchased Sigma; host or cells: human plasma
T4 sequence (P00747 581-810 limits assumed): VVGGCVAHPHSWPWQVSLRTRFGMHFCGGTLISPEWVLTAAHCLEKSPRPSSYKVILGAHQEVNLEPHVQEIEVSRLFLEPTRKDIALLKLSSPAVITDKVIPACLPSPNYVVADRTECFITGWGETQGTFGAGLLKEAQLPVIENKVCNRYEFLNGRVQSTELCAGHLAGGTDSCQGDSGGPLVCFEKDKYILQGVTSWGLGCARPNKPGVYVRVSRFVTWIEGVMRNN
T4 sequence (P00747 97-580 partner limits assumed): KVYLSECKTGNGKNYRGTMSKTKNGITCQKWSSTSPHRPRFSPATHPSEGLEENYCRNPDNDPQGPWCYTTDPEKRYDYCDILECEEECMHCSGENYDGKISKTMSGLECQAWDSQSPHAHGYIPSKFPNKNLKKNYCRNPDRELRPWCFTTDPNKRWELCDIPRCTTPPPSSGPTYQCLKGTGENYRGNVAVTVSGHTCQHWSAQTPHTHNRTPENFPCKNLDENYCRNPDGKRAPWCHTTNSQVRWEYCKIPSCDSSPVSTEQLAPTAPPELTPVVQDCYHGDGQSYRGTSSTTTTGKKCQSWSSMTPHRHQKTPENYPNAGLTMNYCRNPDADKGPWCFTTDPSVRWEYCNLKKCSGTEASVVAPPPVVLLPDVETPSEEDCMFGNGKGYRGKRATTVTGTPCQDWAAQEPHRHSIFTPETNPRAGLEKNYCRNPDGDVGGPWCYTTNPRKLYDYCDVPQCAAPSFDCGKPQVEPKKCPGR
Procedure: as §1, with “The reaction mixture contained 250 μM substrate and approximately 1 mU of enzyme in 145 μL of buffer in a final volume of 200 μL.” left out
as §3, §4

[6] = target: FXa (Homo sapiens, UniProt P00742); test: Selectivity: FXa inhibition, substrate Biophen CS-11(32); conditions: for IC50: 15 min preincubation, Tris buffer pH 8.3, 522 μM substrate; for FXa % (I) @ 250: at 250 (μM)
FXa, sequence (P00742 235-488 limits assumed): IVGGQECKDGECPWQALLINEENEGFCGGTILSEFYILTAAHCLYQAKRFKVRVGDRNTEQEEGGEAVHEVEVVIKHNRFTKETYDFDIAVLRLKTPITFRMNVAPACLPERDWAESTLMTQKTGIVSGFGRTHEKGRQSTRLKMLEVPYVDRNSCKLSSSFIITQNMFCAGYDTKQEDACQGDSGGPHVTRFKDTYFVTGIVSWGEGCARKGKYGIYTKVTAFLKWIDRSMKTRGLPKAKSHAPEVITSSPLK
FXa, sequence (P00742 41-179 partner limits assumed): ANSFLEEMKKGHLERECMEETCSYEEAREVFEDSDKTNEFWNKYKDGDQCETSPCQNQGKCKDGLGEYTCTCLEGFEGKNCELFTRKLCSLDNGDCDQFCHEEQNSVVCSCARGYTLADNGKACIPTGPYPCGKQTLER

[7] = asterisked: compound showed a two-step mechanism, kapp calculated as k2/K1
[8] = apparent second-order rate constant from slope of kobs versus [I]0, no asterisk

Compound | IC50 [1] [µM] | uPA: kapp [2, 7] | IC50 [3] [µM] | IC50 [4] [µM] | IC50 [5] [µM] | IC50 [6] [µM] | FXa % (I) @ 250 [6] [% @ 250] | uPA: kapp [2, 8] [M⁻¹ s⁻¹] | FXa % @ 2.5 ([6]; at 2.5 (μM)) [% @ 2.5]
Cl.N=C(N)Nc1ccc(CC(NC(=O)OCCCc2cn(CCOCCOCCOCCNC(=O)c3ccc(F)cc3)nn2)P(=O)(Oc2ccccc2)Oc2ccccc2)cc1 (stereo not drawn) [Final compound 8, 3-(1-(1-(4-fluorophenyl)-1-oxo-5,8,11-trioxa-2-azamidecan-13-yl)-1H-1,2,3-triazol-4-yl)propyl (1-(diphenoxyphosphoryl)-2-(4-guanidinophenyl)ethyl)carbamate hydrochloride] | 0.019 ± 0.002 | 68 × 10^2 ± 25 × 10^2 * M^−1 s^−1 | 46 ± 5 | 13.2 ± 0.6 | 5.9 ± 0.8 | ~62 |  |  | 
O=C(O)C(F)(F)F.[N-]=[N+]=NCCOCCOCCOCCOC(=O)NC(Cc1ccc(NC(=N)N)cc1)P(=O)(Oc1ccccc1)Oc1ccccc1 (stereo not drawn) [Intermediate 62, 2-(2-(2-(2-azidoethoxy)ethoxy)ethoxy)ethyl 1-(diphenoxyphosphoryl)-2-(4-guanidinophenyl)ethylcarbamate 2,2,2-trifluoroacetate] | 0.015 ± 0.002 | 9 × 10^3 ± 4 × 10^3 * M^−1 s^−1 | 70 ± 11 | 29 ± 5 | 9 ± 0.7 |  | 48 |  | 
O=C(O)C(F)(F)F.[N-]=[N+]=NCCOCCOC(=O)NC(Cc1ccc(NC(=N)N)cc1)P(=O)(Oc1ccccc1)Oc1ccccc1 (stereo not drawn) [Intermediate 60, 2-(2-azidoethoxy)ethyl 1-(diphenoxyphosphoryl)-2-(4-guanidinophenyl)ethyl carbamate 2,2,2-trifluoroacetate] | 0.0052 ± 0.001 | 19 × 10^3 ± 8 × 10^3 * M^−1 s^−1 | 56 ± 53 | 11.8 ± 0.6 | 7.9 ± 0.3 |  | 57 |  | 
O=C(O)C(F)(F)F.[N-]=[N+]=NCCOCCOCCOC(=O)NC(Cc1ccc(NC(=N)N)cc1)P(=O)(Oc1ccccc1)Oc1ccccc1 (stereo not drawn) [Intermediate 61, 2-(2-(2-azidoethoxy)ethoxy)ethyl 1-(diphenoxyphosphoryl)-2-(4-guanidinophenyl)ethylcarbamate 2,2,2-trifluoroacetate] | 0.015 ± 0.002 | 10 × 10^3 ± 4 × 10^3 * M^−1 s^−1 |  | 13 | 5.7 ± 0.6 |  | 51 |  | 
C#CCCCOC(=O)NC(Cc1ccc(NC(=N)N)cc1)P(=O)(Oc1ccc(NC(C)=O)cc1)Oc1ccc(NC(C)=O)cc1 (stereo not drawn) [Intermediate 63, pent-4-ynyl 1-(bis(4-acetamidophenoxy)phosphoryl)-2-(4-guanidinophenyl)ethyl carbamate 2,2,2-trifluoroacetate] | 0.0035 ± 0.0017 | 40 × 10^3 ± 8 × 10^3 * M^−1 s^−1 | 24 ± 4 | 2.1 ± 0.2 | 1.4 ± 0.1 |  | 70 |  | 
O=C(O)C(F)(F)F.[N-]=[N+]=NCCCCCCOC(=O)NC(Cc1ccc(NC(=N)N)cc1)P(=O)(Oc1ccccc1)Oc1ccccc1 (stereo not drawn) [Intermediate 59, 6-azidohexyl 1-(diphenoxyphosphoryl)-2-(4-guanidinophenyl)ethylcarbamate 2,2,2-trifluoroacetate] | 0.0096 ± 0.0019 | 14 × 10^3 ± 3 × 10^3 * M^−1 s^−1 | 16.7 ± 1.7 | 2.4 ± 0.2 | 3.6 ± 0.3 |  | 61 |  | 
2-((1E,3E,5E)-5-(1-(6-((2-(4-(3-(((1-(diphenoxyphosphoryl)-2-(4-guanidino phenyl)ethyl)carbamoyl)oxy)propyl)-1H-1,2,3-triazol-1-yl)ethyl)amino)-6-oxohexyl)-3,3-dimethyl indolin-2-ylidene)penta-1,3-dien-1-yl)-1,3,3-trimethyl-3H-indol-1-ium [Final compound 9] | 0.0589 ± 0.0017 |  |  | > 2.5 | > 2.5 |  |  | 1600 ± 100 | 
CCN(CC)c1ccc2c(-c3ccccc3C(=O)N3CCN(C(=O)CCCCCCCn4cc(COCCOCCOC(=O)NC(Cc5ccc(NC(=N)N)cc5)P(=O)(Oc5ccccc5)Oc5ccccc5)nn4)CC3)c3ccc(=[N+](CC)CC)cc-3oc2c1 (stereo not drawn) [Final compound 2, 2,2,2-trifluoroacetic acid, N-(6-(diethylamino)-9-(2-(4-(8-(4-(11-(diphenoxyphosphoryl)-12-(4-guanidinophenyl)-9-oxo-2,5,8-trioxa-10-azadodecyl)-1H-1,2,3-triazol-1-yl)octanoyl)piperazine-1-carbonyl)phenyl)-3H-xanthen-3-ylidene)-N-ethylethanaminium chloride] | 0.019 ± 0.003 |  | 33 ± 13 | 24 ± 21 | 5.4 ± 1.6 | 176 ± 128 |  | 1300 ± 70 | 
CCN(CC)c1ccc2c(-c3ccccc3C(=O)N3CCN(C(=O)CCCCCCCn4cc(COCCOC(=O)NC(Cc5ccc(NC(=N)N)cc5)P(=O)(Oc5ccccc5)Oc5ccccc5)nn4)CC3)c3ccc(=[N+](CC)CC)cc-3oc2c1.O=C(O)C(F)(F)F.[Cl-] (stereo not drawn) [Final compound 1, 2,2,2-trifluoroacetic acid, N-(6-(diethylamino)-9-(2-(4-(8-(4-((2-(((1-(diphenoxyphosphoryl)-2-(4-guanidinophenyl)ethyl)carbamoyl)oxy)ethoxy)methyl)-1H-1,2,3-triazol-1-yl)octanoyl)piperazine-1-carbonyl)phenyl)-3H-xanthen-3-ylidene)-N-ethylethanaminium chloride] | 0.017 ± 0.002 |  | 7.9 ± 0.3 | 7.9 ± 1.7 | 5.4 ± 0.6 |  |  | 1700 ± 100 | 11
C#CCOCCOCCOC(=O)NC(Cc1ccc(NC(=N)N)cc1)P(=O)(Oc1ccccc1)Oc1ccccc1.O=C(O)C(F)(F)F (stereo not drawn) [Intermediate 56, 2-(2-(prop-2-ynyloxy)ethoxy)ethyl 1-(diphenoxyphosphoryl)-2-(4-guanidinophenyl)ethylcarbamate 2,2,2-trifluoroacetate] | 0.0085 ± 0.0012 | 12 × 10^3 ± 5 × 10^3 * M^−1 s^−1 | 65 ± 9 | 20 ± 3 | 7.8 ± 0.6 |  | 58 |  | 
C#CCCCOC(=O)NC(Cc1ccc(NC(=N)N)cc1)P(=O)(Oc1ccccc1)Oc1ccccc1.O=C(O)C(F)(F)F (stereo not drawn) [Intermediate 58, pent-4-ynyl 1-(diphenoxyphosphoryl)-2-(4-guanidinophenyl)ethylcarbamate 2,2,2-trifluoroacetate] | 0.008 ± 0.0005 | 30 × 10^3 ± 9 × 10^3 * M^−1 s^−1 | 29 ± 2 | 12.2 ± 0.3 | 3.4 ± 0.4 |  | 50 |  | 
